PMC11395612, “DPP-IV Inhibitory Peptide against In Vitro Gastrointestinal Digestion Derived from Goat’s Milk Protein and Its Activity Enhancement via Amino Acid Substitution” (Foods, 2024)
“Also recorded” adds a separate entry of the source. Like-named read-outs stand apart in the source and are kept apart here.

What was measured:
Caco-2 cells = settings: 4 h
DPP-IV [1] = molecular target: T1, DPP-IV (Homo sapiens, UniProt P27487); format: cell-based
T1 construct: host or cells: Caco-2 cells

[2] = In vitro simulated gastrointestinal digestion of goat milk; format: in vitro ADME; settings: in vitro gastric (pepsin, pH 2.0, 60 min) then intestinal digestion (pH 7.0), 30 min, LC-MS/MS
Protocol: Goat milk was subjected to simulated gastrointestinal digestion according to the in vitro digestion protocol described by Xue et al.. Artificial gastric fluid from goat milk was mixed in a 1:1 ratio, followed by the addition of 120 μL CaCl2(H2O)2. The pH of the resulting solution was adjusted to 2.0 using HCl. The solution was then divided into centrifuge tubes, with each tube containing 20 mL of the solution. The tubes were placed in a water bath (FYDKH3, Shanghai Hengyi Scientific Instrument Co., Shanghai, China) and subjected to shock for five min for pre-heating. Subsequently, pepsin was added and dissolved in simulated gastric fluid (SGF). After preheating, 1 mL enzyme solution was added to each tube to initiate the in vitro digestion process. Digestion time intervals were established at 0, 10, 30, 60, 90, and 120 min. Additionally, the pH of the digestion solution was adjusted to 8.0, using NaOH solution to deactivate the enzyme following digestion. After gastric digestion for 60 min followed by enzyme inactivation, an artificial intestinal solution was added at a ratio of 1:1. The subsequent experimental procedures were identical to those previously described. The pH of the solution was adjusted to 7.0. Digestion time intervals were set at 0, 0.5, 5, 10, 30, and 60 min. […]
LC-MS/MS was determined as described by Sun et al.. […]

DPP-IV [3] = settings: MBPDB database assignment, cited from earlier work
Excerpt: Among them, the DPP-IV inhibitory peptide fragment derived from milk serum albumin may be rapidly degraded in vivo due to low structural stability, leading to loss of activity.

DPP-IV [4] = settings: ref [32], cited from earlier work
Excerpt: In the process of in vitro digestion, potential active peptide fragments harboring in food proteins may be degraded by digestive enzymes, but the peptide fragment selected in this study still has DPP-IV inhibitory activity after digestion, which is a digestion-resistant peptide fragment with a molecular weight of about 1kDa. Some reported that DPP-IV inhibitory peptides tend to be active peptides with 2–8 amino acid residues and a molecular weight of less than 1 kDa. The DPP-IV inhibition and metabolic stability of casein-derived peptide Val-Pro-Tyr-Pro-Gln (VPYPQ) and its fragments, an ...

[5] = ref [23] in Table 1 for VGINYWLAHK and ILDKVGINYWLAHK

T1 sequence (P27487 whole entry): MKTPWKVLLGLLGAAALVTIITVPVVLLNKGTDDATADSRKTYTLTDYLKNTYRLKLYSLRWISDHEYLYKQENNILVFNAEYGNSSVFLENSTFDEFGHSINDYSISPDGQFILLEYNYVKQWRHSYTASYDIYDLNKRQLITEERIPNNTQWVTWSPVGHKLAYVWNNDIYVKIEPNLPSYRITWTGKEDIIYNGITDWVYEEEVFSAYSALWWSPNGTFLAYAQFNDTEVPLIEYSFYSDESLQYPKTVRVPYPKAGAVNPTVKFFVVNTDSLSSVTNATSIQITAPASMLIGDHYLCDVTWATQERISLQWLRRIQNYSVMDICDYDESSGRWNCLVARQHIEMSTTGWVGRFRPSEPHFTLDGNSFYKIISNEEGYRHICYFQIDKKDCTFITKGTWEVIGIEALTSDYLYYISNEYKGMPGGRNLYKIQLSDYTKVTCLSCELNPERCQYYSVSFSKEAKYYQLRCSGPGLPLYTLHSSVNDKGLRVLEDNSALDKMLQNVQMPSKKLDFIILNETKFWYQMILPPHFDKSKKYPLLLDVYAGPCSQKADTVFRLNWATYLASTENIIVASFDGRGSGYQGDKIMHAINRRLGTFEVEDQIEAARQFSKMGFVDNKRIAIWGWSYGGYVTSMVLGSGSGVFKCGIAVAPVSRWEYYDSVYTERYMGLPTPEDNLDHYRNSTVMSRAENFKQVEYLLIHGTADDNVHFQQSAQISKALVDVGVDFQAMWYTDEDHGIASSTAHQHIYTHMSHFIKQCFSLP

| Substance | cellular activity (cell viability) (Caco-2 cells; 0.5 mg/mL) [%] | cellular activity (cell viability) (Caco-2 cells; 1 mg/mL) [%] | DPP-IV inhibition rate (DPP-IV [1]) [%] | DPP-IV inhibitory effect, in words (DPP-IV [1]) | DPP-IV inhibitory activity, in words (DPP-IV [3]; [5]) | also measured |
| --- | --- | --- | --- | --- | --- | --- |
| H-IIDKVGINY-OH [II] | 90.34 ± 2.08 | 85.51 ± 3.52 | 79.20 ± 2.20 | significant enhancement of DPP-IV inhibitory activity; also recorded: strongest; also recorded: increased the hydrophobic force and inhibitory activity | – | – |
| H-ILDKVGINY-OH [IL] | 91.91 ± 5.763 | 86 ± 3.911 | 73.44 ± 2.23 | – | – | resistance to digestion / activity after digestion, in words [2]: high in content and resistance to digestion; resistance to digestion / activity after digestion, in words ([2]; listed as ILDKVGINY): retaining its activity following digestion; DPP-IV inhibitory activity, in words (DPP-IV [3]; ref [23] in Table 1 for […] and […]): displayed DPP-IV inhibitory activity |
| H-IPDKVGINY-OH [IP] | 91.88 ± 5.385 | 84.46 ± 2.928 | 60.37 ± 3.04 | weakest; also recorded: lower inhibition rate | – | – |
| ILDKVGINYWLAHK | – | – | – | – | displayed DPP-IV inhibitory activity | – |
| VGINYWLAHK | – | – | – | – | displayed DPP-IV inhibitory activity | – |
| Val-Pro-Tyr-Pro-Gln [VPYPQ, casein-derived peptide] | – | – | – | – | – | DPP-IV inhibitory activity, in words (DPP-IV [4]; among VPYPQ and its fragments): strongest DPP-IV inhibitory peptide; IC50 (DPP-IV [4]; casein-derived peptide, read-out: IC50 of DPP-IV inhibition): 41.5 µM |
